Assay results from patent US12281363B2, “Methods for detecting antiviral-drug resistant virus” (Secretary of State for Health and Social Care, priority 2018, dated 2025).
Read-outs that look alike come from different tables or passages of the source.

System: HSV-2
Experiment: Plaque reduction assay, HSV-2 clinical isolates on Vero cells
Assay type: cell-based
Conditions: Human alphaherpesvirus 2, Vero
Text: Viral isolates were used to infect a sub-confluent monolayer of Vero cells at a concentration of 75 or 50 plaque forming units (PFU) per well for HSV-1 and HSV-2, respectively. […] CMC medium typically used to create a semisolid interface and prevents indiscrimate viral spreading. Other materials (e.g. agar) may also be used to create this interface.
Cells were fixed with 10% formalin and stained with crystal violet before enumeration of the plaques (microscopic observation or use of fluorescent antibodies for detection is also suitable). The data obtained from these experiments were then expressed as percent inhibition of viral infectivity relative to the no drug control.
Definitions of phenotypic drug susceptibility classification as sensitive or resistant were as follows: ACV, <3 μM or >40 μM; PCV, <10 μM or >40 μM; CDV, <24 μM or >30 μM; FOS, <250 μM or >400 μM; and ACV, <6.5 μM or >40 μM; PCV, <38 μM or >40 μM; FOS, <250 μM or >400 μM for HSV-1 and HSV-2, respectively. Any IC50 values falling in between these sensitive and resistant cut-offs were reported as intermediate resistance.
The phenotype (i.e. reactivity to a drug) of the virus was characterised by the plaque reduction assay as described above. The present inventors have characterised the resistance-causing phenotype of a large number of TK and DNA pol mutations.

O=C(O)P(=O)(O)O [Foscarnet, foscarnet]
IC50 (isolate HPG001, HSV-2 TK A125T (373G>A), read-out: Drug susceptibility (IC50 value)): 236 µM | IC50 (isolate HPG001, HSV-2 TK A125T (373G>A), read-out: Drug susceptibility Foscarnet (FOS)): < 250 µM | IC50 (isolate HPG001, HSV-2 pol H714R (2141A>G), read-out: Drug susceptibility (IC50 value)): 236 µM | IC50 (isolate HPG001, HSV-2 pol H714R (2141A>G), read-out: Drug susceptibility Foscarnet (FOS)): < 250 µM | IC50 (isolate HPG004, HSV-2 pol M494T (1481T>C), also pol S729N, read-out: Drug susceptibility (IC50 value)): 349 µM | IC50 (isolate HPG004, HSV-2 pol M494T (1481T>C), also pol S729N, read-out: Drug susceptibility Foscarnet (FOS)): 250 to 400 µM | IC50 (isolate HPG007, HSV-2 pol R628G (1882C>G), read-out: Drug susceptibility (IC50 value)): 783 µM | IC50 (isolate HPG007, HSV-2 pol R628G (1882C>G), read-out: Drug susceptibility Foscarnet (FOS)): > 400 µM | IC50 (isolate HPG017, HSV-2 TK Q186H (558G>T), read-out: Drug susceptibility (IC50 value)): 118 µM | IC50 (isolate HPG017, HSV-2 TK Q186H (558G>T), read-out: Drug susceptibility Foscarnet (FOS)): < 250 µM | IC50 (isolate HPG022, HSV-2 TK E213D (639A>C), read-out: Drug susceptibility (IC50 value)): 82 µM | IC50 (isolate HPG022, HSV-2 TK E213D (639A>C), read-out: Drug susceptibility Foscarnet (FOS)): < 250 µM | IC50 (isolate HPG022, HSV-2 pol D174Y (520G>T), read-out: Drug susceptibility (IC50 value)): 82 µM | IC50 (isolate HPG022, HSV-2 pol D174Y (520G>T), read-out: Drug susceptibility Foscarnet (FOS)): < 250 µM | IC50 (isolate HPG023, HSV-2 TK Q186H (558G>T), read-out: Drug susceptibility (IC50 value)): 78 µM | IC50 (isolate HPG023, HSV-2 TK Q186H (558G>T), read-out: Drug susceptibility Foscarnet (FOS)): < 250 µM | IC50 (isolate HPG024, HSV-2 TK E213D (639A>C), read-out: Drug susceptibility (IC50 value)): 88.7 µM | IC50 (isolate HPG024, HSV-2 TK E213D (639A>C), read-out: Drug susceptibility Foscarnet (FOS)): < 250 µM | IC50 (isolate HPG028, HSV-2 TK 98stop or A94fs (276delG, 278delG, 279delG, or 280delG), read-out: Drug susceptibility (IC50 value)): 98.8 µM | IC50 (isolate HPG028, HSV-2 TK 98stop or A94fs (276delG, 278delG, 279delG, or 280delG), read-out: Drug susceptibility Foscarnet (FOS)): < 250 µM | IC50 (isolate HPG028, HSV-2 pol E776Q (2326G>C), also TK deletion (G) nt 276-280, read-out: Drug susceptibility (IC50 value)): 98.8 µM | IC50 (isolate HPG028, HSV-2 pol E776Q (2326G>C), also TK deletion (G) nt 276-280, read-out: Drug susceptibility Foscarnet (FOS)): < 250 µM | IC50 (isolate HPG028, HSV-2 pol R775C, R775W (2323C>T; 2325C>G), also TK deletion (G) nt 276-280, read-out: Drug susceptibility (IC50 value)): 98.8 µM | IC50 (isolate HPG028, HSV-2 pol R775C, R775W (2323C>T; 2325C>G), also TK deletion (G) nt 276-280, read-out: Drug susceptibility Foscarnet (FOS)): < 250 µM | IC50 (isolate HPG030, HSV-2 TK Q90stop (268C>T), read-out: Drug susceptibility (IC50 value)): 92.3 µM | IC50 (isolate HPG030, HSV-2 TK Q90stop (268C>T), read-out: Drug susceptibility Foscarnet (FOS)): < 250 µM | IC50 (isolate HPG030, HSV-2 pol E761K (2281G>A), also TK Q90stop, read-out: Drug susceptibility (IC50 value)): 92.3 µM | IC50 (isolate HPG030, HSV-2 pol E761K (2281G>A), also TK Q90stop, read-out: Drug susceptibility Foscarnet (FOS)): < 250 µM | IC50 (isolate HPG034, HSV-2 TK L313S (938A>C), read-out: Drug susceptibility Foscarnet (FOS)): < 250 µM | IC50 (isolate HPG036, HSV-2 TK E84K (250G>A), read-out: Drug susceptibility (IC50 value)): 78.8 µM | IC50 (isolate HPG036, HSV-2 TK E84K (250G>A), read-out: Drug susceptibility Foscarnet (FOS)): < 250 µM | IC50 (isolate HPG038, HSV-2 TK R34C (100C>T), read-out: Drug susceptibility (IC50 value)): 73.7 µM | IC50 (isolate HPG038, HSV-2 TK R34C (100C>T), read-out: Drug susceptibility Foscarnet (FOS)): < 250 µM | IC50 (isolate HPG044, HSV-2 TK M86L (256A>C), read-out: Drug susceptibility (IC50 value)): 73.8 µM | IC50 (isolate HPG044, HSV-2 TK M86L (256A>C), read-out: Drug susceptibility Foscarnet (FOS)): < 250 µM | IC50 (isolate HPG048, HSV-2 TK Q90stop (268C>T), read-out: Drug susceptibility (IC50 value)): 56.9 µM | IC50 (isolate HPG048, HSV-2 TK Q90stop (268C>T), read-out: Drug susceptibility Foscarnet (FOS)): < 250 µM | IC50 (isolate HPG048, HSV-2 pol E761K (2281G>A), also TK Q90stop, read-out: Drug susceptibility (IC50 value)): 56.9 µM | IC50 (isolate HPG048, HSV-2 pol E761K (2281G>A), also TK Q90stop, read-out: Drug susceptibility Foscarnet (FOS)): < 250 µM | IC50 (isolate HPG057, HSV-2 TK 98stop or A94fs (276delG, 278delG, 279delG, or 280delG), read-out: Drug susceptibility (IC50 value)): 98.5 µM | IC50 (isolate HPG057, HSV-2 TK 98stop or A94fs (276delG, 278delG, 279delG, or 280delG), read-out: Drug susceptibility Foscarnet (FOS)): < 250 µM | IC50 (isolate HPG058, HSV-2 TK 183stop or P154fs (458delC, 459delC, 460delC, or 461delC), read-out: Drug susceptibility (IC50 value)): 59 µM | IC50 (isolate HPG058, HSV-2 TK 183stop or P154fs (458delC, 459delC, 460delC, or 461delC), read-out: Drug susceptibility Foscarnet (FOS)): < 250 µM | IC50 (read-out: Drug susceptibility (IC50 value), isolate HPG034, HSV-2 TK L313S (938A>C)): 73.5 µM | IC50 (read-out: Drug susceptibility (IC50 value), isolate HPG056, HSV-2 pol M447L (1339A>C)): 88 µM | IC50 (read-out: Drug susceptibility Foscarnet (FOS), isolate HPG056, HSV-2 pol M447L (1339A>C)): < 250 µM
